Measurements from PubChem BioAssay (NCI).
“And” between values parts separate entries of the source, which are not always exact repeats. Identical values can stand only once.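 The compound was tested at five concentrations on cells cultured in 96-well plates, with a 48-hour exposure period. The concentration for 50% growth inhibition is given as GI50. Definition used: TGI = concentration required for complete inhibition of growth.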

Legend:
Experiment in all cases: growth of human tumour cells (NCI), 48 h
SNB-75 CNS = system: SNB-75 CNS
MCF7 breast = system: MCF7 breast
NCI-H522 lung = system: NCI-H522 lung
DU-145 prostate = system: DU-145 prostate
SW-620 colon = system: SW-620 colon
COLO 205 colon = system: COLO 205 colon
LOX IMVI melanoma = system: LOX IMVI melanoma
ACHN renal = system: ACHN renal
OVCAR-5 ovarian = system: OVCAR-5 ovarian
UACC-257 melanoma = system: UACC-257 melanoma

`Nc1nc2c(ccc3ccccc32)[nH]1` showed a TGI (SNB-75 CNS) greater than 10 µM, a TGI (MCF7 breast) greater than 10 µM and a TGI (NCI-H522 lung) greater than 10 µM. For the same compound, the TGI (DU-145 prostate) was greater than 10 µM, the TGI (SW-620 colon) was greater than 10 µM and the TGI (COLO 205 colon) was greater than 10 µM. It also gave a TGI (LOX IMVI melanoma) greater than 10 µM, a TGI (ACHN renal) greater than 10 µM and a TGI (OVCAR-5 ovarian) greater than 10 µM.

For `COC1=C(C)C(=O)C2=C(C1=O)C1C3CC4=C(C(=O)C(OC)=C(C)C4=O)C(CNC(=O)C(C)=O)N3C(C#N)C(C2)N1C` (configuration not stated), the GI50 (UACC-257 melanoma) was 5.76 pM, the GI50 (MCF7 breast) was 0.0742 nM and the TGI (MCF7 breast) was 0.359 µM and 0.379 µM. For the same compound, the GI50 (DU-145 prostate) was 0.0033 µM, the TGI (DU-145 prostate) was 0.0862 µM and the TGI (SW-620 colon) was 0.297 µM and 0.125 µM. The GI50 (LOX IMVI melanoma) was 0.0147 nM, the TGI (LOX IMVI melanoma) was 8.74e-05 µM and < 0.0251 µM and < 0.0105 µM and the GI50 (ACHN renal) was 0.00366 µM. The TGI (ACHN renal) was 1.16 µM and 1.23 µM and the TGI (OVCAR-5 ovarian) was 0.0768 µM and 0.0776 µM.

In the case of `O=C1Cc2c([nH]c3c(Br)cccc23)-c2ccccc2N1`, the TGI (SNB-75 CNS) is reported as greater than 100 µM, the TGI (UACC-257 melanoma) is reported as greater than 100 µM and the TGI (MCF7 breast) is reported as greater than 100 µM. For the same compound, the TGI (DU-145 prostate) was greater than 100 µM, the TGI (SW-620 colon) was greater than 100 µM and the TGI (COLO 205 colon) was greater than 100 µM. For the same compound, the TGI (LOX IMVI melanoma) was greater than 100 µM, the TGI (ACHN renal) was greater than 100 µM and the TGI (OVCAR-5 ovarian) was greater than 100 µM.

Compound `N=c1sc(N2CCOCC2)nn1CC(=O)c1ccccc1` has a TGI (SNB-75 CNS) greater than 100 µM, a TGI (UACC-257 melanoma) greater than 100 µM and a TGI (MCF7 breast) greater than 100 µM. For the same compound, the TGI (NCI-H522 lung) was greater than 100 µM, the TGI (DU-145 prostate) was greater than 100 µM and the TGI (SW-620 colon) was greater than 100 µM. The TGI (COLO 205 colon) was greater than 100 µM, the TGI (ACHN renal) was greater than 100 µM and the TGI (OVCAR-5 ovarian) was greater than 100 µM.

Compound `Oc1[nH]c2ccccc2c1N=Nc1nc(-c2ccccc2)cs1` has a TGI (SNB-75 CNS) of 41.3 µM, a TGI (UACC-257 melanoma) greater than 100 µM and a TGI (MCF7 breast) greater than 100 µM. The TGI (DU-145 prostate) was greater than 100 µM, the TGI (SW-620 colon) was greater than 100 µM and the TGI (COLO 205 colon) was greater than 100 µM. For the same compound, the TGI (LOX IMVI melanoma) was greater than 100 µM, the TGI (ACHN renal) was greater than 100 µM and the TGI (OVCAR-5 ovarian) was greater than 100 µM.

With `CNc1nc(OC)c2c(n1)[n+](C)cn2C` the TGI (SNB-75 CNS) was greater than 100 µM, the TGI (UACC-257 melanoma) was greater than 100 µM and the TGI (NCI-H522 lung) was greater than 100 µM. It also gave a TGI (DU-145 prostate) greater than 100 µM, a TGI (SW-620 colon) greater than 100 µM and a TGI (COLO 205 colon) greater than 100 µM. It also gave a TGI (LOX IMVI melanoma) greater than 100 µM, a TGI (ACHN renal) greater than 100 µM and a TGI (OVCAR-5 ovarian) greater than 100 µM.

For `CC(C)(C)OC(=O)NCCCCC1NC(=O)[C@@H]2Cc3c([nH]c4ccccc34)C(c3ccccc3)N2C1=O` (some centres not stated), the TGI (UACC-257 melanoma) was greater than 100 µM, the TGI (MCF7 breast) was greater than 100 µM and the TGI (NCI-H522 lung) was greater than 100 µM. It also gave a TGI (DU-145 prostate) greater than 100 µM, a TGI (SW-620 colon) greater than 100 µM and a TGI (COLO 205 colon) of 46.9 µM. It also gave a TGI (LOX IMVI melanoma) of 56.4 µM, a TGI (ACHN renal) greater than 100 µM and a TGI (OVCAR-5 ovarian) greater than 100 µM.

For `NS(=O)(=O)c1cc2c(cc1Cl)NC(C(=O)NNC(=O)c1ccncc1)=NS2(=O)=O`, the TGI (SNB-75 CNS) was greater than 100 µM, the TGI (UACC-257 melanoma) was greater than 100 µM and the TGI (NCI-H522 lung) was greater than 100 µM. It also gave a TGI (SW-620 colon) greater than 100 µM, a TGI (COLO 205 colon) greater than 100 µM and a TGI (LOX IMVI melanoma) greater than 100 µM. The TGI (ACHN renal) was greater than 100 µM.

For `O=C(Nc1nc2ccc([N+](=O)[O-])cc2s1)c1cc([N+](=O)[O-])ccc1Cl`, the TGI (SNB-75 CNS) was 9.61 µM, the TGI (UACC-257 melanoma) was 19.2 µM and the TGI (NCI-H522 lung) was 4.39 µM. The TGI (DU-145 prostate) was 31 µM, the TGI (SW-620 colon) was 5.59 µM and the TGI (COLO 205 colon) was 3.65 µM. It also gave a TGI (LOX IMVI melanoma) of 5.3 µM, a TGI (ACHN renal) of 13.7 µM and a TGI (OVCAR-5 ovarian) of 17 µM.

For `Cc1cccc2c1Oc1ncccc1C2NC(=O)CN(C)C` (configuration not stated), the TGI (SNB-75 CNS) was greater than 10 µM, the TGI (UACC-257 melanoma) was greater than 10 µM and the TGI (MCF7 breast) was greater than 10 µM. For the same compound, the TGI (NCI-H522 lung) was greater than 10 µM, the TGI (SW-620 colon) was greater than 10 µM and the TGI (LOX IMVI melanoma) was greater than 10 µM. The TGI (ACHN renal) was greater than 10 µM and the TGI (OVCAR-5 ovarian) was greater than 10 µM.

For `CCOC(=O)Oc1ccc2[nH]c3c(C)cc(N)c(C)c3c2c1`, the TGI (SNB-75 CNS) was greater than 100 µM, the TGI (UACC-257 melanoma) was greater than 100 µM and the TGI (NCI-H522 lung) was greater than 100 µM. For the same compound, the TGI (SW-620 colon) was greater than 100 µM, the TGI (COLO 205 colon) was greater than 100 µM and the TGI (LOX IMVI melanoma) was greater than 100 µM. For the same compound, the TGI (ACHN renal) was greater than 100 µM and the TGI (OVCAR-5 ovarian) was greater than 100 µM.
